Results on ten compounds are retold here after PMC8999625, “Antiviral Effects of ABMA and DABMA against Influenza Virus In Vitro and In Vivo via Regulating the Endolysosomal Pathway and Autophagy” (International Journal of Molecular Sciences, 2022).

The structures appear in SMILES notation. “Also recorded” adds a separate entry of the source. Counter-ions that a name gives are not always drawn. Like-named read-outs stand apart in the source and are kept apart here.

For data set [1], the system named is Corynebacterium diphtheriae. Also on record: method as in PMID 29138439. The conditions noted are these: cited from earlier work.
The next data set concerns HSV-2. The conditions noted are these: cited from earlier work.
The next data set has as its system Ebola virus. The conditions noted are these: cited from earlier work.
Data set [2] has as its system A/NY/61/LV16A (H1N1). In words: H1N1 NP mRNA by qRT-PCR in A549 cells treated with autophagy inhibitors. The format is cell-based, influenza virus. (In general: In qPCR the cycle at which signal appears reflects the starting amount.)
In data set [3] the test system is A/NY/61/LV16A (H1N1). In words: Binding assay. The format is cell-based, influenza virus.
In data set [4] the test system is A/NY/61/LV16A (H1N1). Nature of the data set: Viral nucleoprotein (NP) by Western blotting. The format is cell-based, influenza virus. (A western blot detects proteins with antibodies after separation by electrophoresis.)
The subject of data set [5] is A/NY/61/LV16A (H1N1). Nature of the data set: CPE inhibition assay. The format is cell-based.
Data set [6] in a line: in vitro. The settings on record: dog.
Data set [7] deals with A/NY/61/LV16A (H1N1). In words: Time of addition assay. The format is cell-based, influenza virus.
For data set [8], the system named is A/NY/61/LV16A (H1N1). The format is in vivo, BALB/c mice. The settings on record: for survival rate: 5 mg/kg i.p. once daily for 6 days, H1N1 i.n., 14 days; for H1N1 virus titers in the lungs compared to placebo / lung histopathology changes (H&E) / lung index compared to placebo / lung viral load compared to placebo: mouse, in vivo, ip.
For data set [9], the system named is A/NY/61/LV16A (H1N1). Nature of the data set: H1N1 RNA replication by qRT-PCR in MDCK cells. The format is cell-based, influenza virus.
The subject of data set [10] is A/NY/61/LV16A (H1N1). The format is cell-based. The conditions noted are these: 15 μM, A549 cells, MOI = 1, 16 hpi, vs virus control.
Data set [11] can be described thus: in vitro. The settings on record: human.
The test system of data set [12] is A/NY/61/LV16A (H1N1). In words: Entry assay. The format is cell-based, influenza virus.
Data set [13] deals with influenza virus strains (H1N1, H3N2, influenza B virus). In words: CPE inhibition assay, all influenza virus strains tested. The conditions noted are these: unidentified influenza virus; range over five strains, MDCK cells; read-out: EC50 values ranging, all influenza virus strains tested. The format is cell-based.
Data set [14] deals with A/Maonan/SWL1536/2019 (H1N1). Nature of the data set: CPE inhibition assay. The format is cell-based.
Another data set deals with A/17/HK/2014/8296 (H3N2). In words: CPE inhibition assay. The format is cell-based.
The subject of the next data set is B/Washington/02/2019. In words: CPE inhibition assay. The format is cell-based.
The next data set concerns LC3B-II and p62. In words: Autophagy markers by Western blotting in A549 cells. The format is cell-based. The conditions noted are these: dose- and time-dependent.
For data set [15] the following is noted: uninfected mice, 5 mg/kg i.p.
The subject of another data set is Rab7. The format is cell-based. The conditions noted are these: 15 µM, A549 cells, 3 hpi.
The nature of data set [16]: Cytotoxicity, CellTiter-Glo cell viability. The conditions noted are these: dog, uninfected MDCK cells. (In general: ATP-based viability assays read luminescence as a measure of living cells.)
Setting [17] is: Influenza A virus, H1N1, MDCK; read-out: EC50 ± SD A/NY/61/LV16A (H1N1).
Setting [18] is: Influenza A virus, H1N1; MDCK cells; read-out: EC90 (approximately).
Setting [19] is: Influenza A virus, H1N1, MDCK; read-out: EC50 ± SD A/Maonan/SWL1536/2019 (H1N1).
Setting [20] is: Influenza A virus, H3N2, MDCK; read-out: EC50 ± SD A/17/HK/2014/8296 (H3N2).
Setting [21] is: Influenza B virus; B/M2; infected MDCK cells, MOI = 0.01, 48 hpi; read-out: EC50 ± SD B/Washington/02/2019.

In the case of `CC(N)C12CC3CC(CC(C3)C1)C2` (stereo not shown) [1-(1-adamantyl) ethylamine], the “activity against Corynebacterium diphtheriae” value in data set [1] is “inactive”. Also, the “activity against HSV-2 infection” value with HSV-2 is “inactive”. Further, the “activity against Ebola virus” value in the data set on Ebola virus was “inactive”.

As for `Cn1cnc(N)c2ncnc1-2` [3-MA, 3-methyladenine], the “H1N1 RNA content” value in the data set on A/NY/61/LV16A (H1N1) [2] was “significantly decreased”.

In general, EC90 refers to the concentration at which the effect reaches the 90% level. For the compound `COc1ccc(Br)cc1CNC12CC3CC(CC(C3)C1)C2` [ABMA, 1-adamantyl (5-bromo-2-methoxybenzyl) amine], in the data set with A/NY/61/LV16A (H1N1) [3], the “binding of the virus to cells” value is “do not affect”. The “NP expression levels (Western blot)” value in the data set on A/NY/61/LV16A (H1N1) [4] is “reduced; also recorded: decreased”. For the same compound, in the data set with A/NY/61/LV16A (H1N1) [5] (setting [17]), the EC50 was 3.25 ± 0.17 µM. In the data set with A/NY/61/LV16A (H1N1) [5] (setting [18]), the EC90 is around 15 µM. Besides, in “in vitro [6]”, the CC50 at 72 h turned out to be 72.3 ± 1.09 µM. In addition, the “H1N1 RNA content, time of addition” value with A/NY/61/LV16A (H1N1) [7] is on record as “significantly reduced”. In addition, in the data set with A/NY/61/LV16A (H1N1) [8], the survival rate came out at 67%, the “H1N1 virus titers in the lungs compared to placebo” value is recorded as “lower titers”, the “lung histopathology changes (H&E)” value was “significant reduction” and the “lung index compared to placebo” value is “significantly reduced”. Moreover, in the data set on A/NY/61/LV16A (H1N1) [8], the “lung viral load compared to placebo” value was “significantly reduced”. Moreover, the “inhibition of H1N1 RNA replication (qRT-PCR)” value in the data set on A/NY/61/LV16A (H1N1) [9] came out at 81.77%. Moreover, the NP fluorescence signal result in the data set on A/NY/61/LV16A (H1N1) [10] was “significantly decreased”. Also, the CC50 in the data set “in vitro [11]” was 83.8 ± 1.92 µM. In the data set on A/NY/61/LV16A (H1N1) [12], the “entry stage of H1N1” value was “significantly inhibited”. Moreover, in [13], the EC50 was 2.83 to 7.36 µM. Further, the EC50 in data set [14] (setting [19]) was found to be 4.57 ± 0.33 µM. Further, in the data set with A/17/HK/2014/8296 (H3N2) (setting [20]), the EC50 is 5.58 ± 0.38 µM. The EC50 in the data set on B/Washington/02/2019 (setting [21]) stood at 7.36 ± 0.65 µM. In the data set with LC3B-II and p62, the LC3B-II level entry was “increased” and the p62 level entry is recorded as “increased”. The “changes in animal behavior, lethargy and body weight” value in [15] is listed as “No remarkable changes”. Further, the Rab7 protein fluorescence entry with Rab7 was “largely increased”.

`NC12CC3CC(CC(C3)C1)C2` [Amantadine, Amantadine hydrochloride]: the EC50 was 9.97 ± 1.34 µM in the data set on A/NY/61/LV16A (H1N1) [5] (setting [17]); 20.2 ± 1.36 µM in [14] (setting [19]); 8.27 ± 0.66 µM with A/17/HK/2014/8296 (H3N2) (setting [20]); above 100 µM with B/Washington/02/2019 (Influenza B virus, MDCK, read-out: EC50 ± SD B/Washington/02/2019). Also, the CC50 in the data set “in vitro [6]” amounted to 477 ± 39.5 µM. Besides, the “activity against Corynebacterium diphtheriae” value in data set [1] was “inactive”. Besides, in the data set on B/Washington/02/2019, the “antiviral activity against B/Washington/02/2019 (IBV)” value is reported as “did not show antiviral activity; also recorded: no significant protection”. Moreover, the “activity against HSV-2 infection” value in the data set on HSV-2 is “inactive”. The “activity against Ebola virus” value with Ebola virus was “inactive”.

With `CO/C1=C\C(C)=C\[C@@H](C)[C@@H](O)[C@@H](C)C/C(C)=C/C=C/[C@H](OC)[C@@H]([C@@H](C)[C@@H](O)[C@H](C)[C@@]2(O)C[C@@H](O)[C@H](C)[C@@H](C(C)C)O2)OC1=O` [Baf A1, Bafilomycin A1, reference compound], in the data set with A/NY/61/LV16A (H1N1) [4], the “NP expression levels (Western blot)” value was “decreased”. In addition, the “H1N1 RNA content” value in the data set with A/NY/61/LV16A (H1N1) [2] is on record as “significantly decreased”.

Regarding `CCN(CC)CCCC(C)Nc1ccnc2cc(Cl)ccc12` (stereo not shown) [Chloroquine, reference compound], the figures for the EC50 in the data set on A/NY/61/LV16A (H1N1) [5] (setting [17]) and with A/17/HK/2014/8296 (H3N2) (setting [20]) were 17.1 ± 2.27 µM and 12 ± 1.26 µM, respectively.

For `COc1ccc(Br)cc1CNC12CC3CC(C)(CC(C)(C3)C1)C2` [DABMA, 1,3-dimethyl-1-adamantyl (5-bromo-2-methoxybenzyl) amine], in the data set on A/NY/61/LV16A (H1N1) [3], the “binding of the virus to cells” value is listed as “do not affect”. In addition, the “NP expression levels (Western blot)” value in the data set with A/NY/61/LV16A (H1N1) [4] is on record as “reduced”. Also, in the data set on A/NY/61/LV16A (H1N1) [5] (setting [17]), the EC50 worked out at 1.82 ± 0.11 µM. Moreover, in the data set with A/NY/61/LV16A (H1N1) [5] (setting [18]), the EC90 is around 15 µM. The compound further returned a CC50 at 72 h in the data set “in vitro [6]” of 42.7 ± 1.46 µM. Also, the “H1N1 RNA content, time of addition” value in the data set with A/NY/61/LV16A (H1N1) [7] is reported as “significantly reduced”. In addition, in the data set on A/NY/61/LV16A (H1N1) [8], the survival rate stood at 67%, the “H1N1 virus titers in the lungs compared to placebo” value is “lower titers”, the “lung histopathology changes (H&E)” value was “significant reduction” and the “lung index compared to placebo” value was “significantly reduced”. For the same compound, the “lung viral load compared to placebo” value in the data set with A/NY/61/LV16A (H1N1) [8] is “significantly reduced”. In addition, the “inhibition of H1N1 RNA replication (qRT-PCR)” value in the data set on A/NY/61/LV16A (H1N1) [9] stood at 86.51%. For the same compound, the NP fluorescence signal result in the data set with A/NY/61/LV16A (H1N1) [10] is “significantly decreased”. Further, the CC50 in the data set “in vitro [11]” is 47.4 ± 1.68 µM. Further, in the data set with A/NY/61/LV16A (H1N1) [12], the “entry stage of H1N1” value is reported as “significantly inhibited”. The EC50 in data set [13] was 1.82 to 6.73 µM. In [14] (setting [19]), the EC50 was 2.69 ± 0.26 µM. The EC50 with A/17/HK/2014/8296 (H3N2) (setting [20]) is 6.73 ± 0.73 µM. Moreover, in the data set on B/Washington/02/2019 (setting [21]), the EC50 amounted to 6.62 ± 0.46 µM. For the same compound, the “changes in animal behavior, lethargy and body weight” value in data set [15] was “No remarkable changes”.

In the case of `CCOC(=O)C1=C[C@@H](OC(CC)CC)[C@H](NC(C)=O)[C@@H](N)C1` [Oseltamivir, Oseltamivir phosphate], the EC50 with A/NY/61/LV16A (H1N1) [5] (setting [17]) is 7.97 ± 0.85 µM; in data set [14] (setting [19]), 2.95 ± 0.21 µM; in the data set on A/17/HK/2014/8296 (H3N2) (setting [20]), 7.3 ± 0.79 µM; in the data set with B/Washington/02/2019 (Influenza B virus, MDCK; read-out: EC50 ± SD B/Washington/02/2019), 8.53 ± 1.64 µM. This compound gave a CC50 at 72 h in “in vitro [6]” of 1890 ± 71.8 µM.

Regarding `NC(=O)c1ncn([C@@H]2O[C@H](CO)[C@@H](O)[C@H]2O)n1` [Ribavirin, ribavirin], the EC50 is 1.61 ± 0.62 µM with A/NY/61/LV16A (H1N1) [5] (Influenza A virus, H1N1, MDCK, read-out: EC50 ± SD A/NY/61/LV16A (H1N1)); 3.2 ± 0.34 µM in data set [14] (Influenza A virus, H1N1, MDCK, read-out: EC50 ± SD A/Maonan/SWL1536/2019 (H1N1)); 0.13 ± 0.04 µM with A/17/HK/2014/8296 (H3N2) (Influenza A virus, H3N2, MDCK, read-out: EC50 ± SD A/17/HK/2014/8296 (H3N2)); 3.02 ± 0.39 µM in the data set on B/Washington/02/2019 (setting [21]). Besides, the CC50 at 72 h in data set [16] was 5480 ± 255 µM.

As to `CC12CC3CC(C)(C1)CC(N)(C3)C2` [memantine], the “activity against Corynebacterium diphtheriae” value in data set [1] is “inactive”. For the same compound, the “activity against HSV-2 infection” value with HSV-2 was “inactive”. Also, the “activity against Ebola virus” value in the data set on Ebola virus is “inactive”.
